Data from US20250353874A1, “GLUCOCORTICOID RECEPTOR AGONISTS” (Eli Lilly and Company, priority 2021, published 2025).
Read-outs that look alike come from different tables or passages of the source.

Target: hGR (GR-LBD) (Homo sapiens (Human), UniProt P04150)
Test: hGR CoActivator Recruitment Assay (LanthaScreen TR-Fret GR Coactivator Assay)
Format: biochemical
Details: top concentration 200 nM
Procedure: hGR CoActivator Recruitment Assay
The activity of glucocorticoid compounds was measured using the LanthaScreen TR-Fret GR Coactivator Assay from Life Technologies (A15899). The compounds were acoustically transferred to an assay plate in a 3-fold 10-point serial dilution with a top concentration of 200 nM. Ten microliters of a 2× solution of GR-LBD was added to the compound plate and incubated for 10 min. Then ten microliters of a 2× solution of Fluoresein-SRC1-4 and Tb labelled anti-GST antibody were added to the plate. The plate was incubated in the dark for two hours and then read on an Envision plate reader, with excitation at 340 nm and emission at 520 nm (Fluorescein) and 490 nm (Terbium). The emission ratio of 520/490 was analyzed in Genedata. To obtain percent activity, the data was compared to a negative control of DMSO and positive control of 4 uM dexamethasone.

[1] = 10-point dilution, positive control 4 uM dexamethasone, read-out: IC50

Chain of hGR (GR-LBD) (P04150 524-758): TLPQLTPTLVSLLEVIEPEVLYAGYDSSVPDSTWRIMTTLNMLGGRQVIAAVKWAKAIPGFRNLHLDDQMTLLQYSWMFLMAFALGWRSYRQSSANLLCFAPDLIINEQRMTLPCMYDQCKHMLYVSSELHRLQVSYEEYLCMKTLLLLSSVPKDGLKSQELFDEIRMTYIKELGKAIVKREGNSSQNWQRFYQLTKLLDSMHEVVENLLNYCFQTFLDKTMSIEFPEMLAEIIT

| SMILES | IC50 [1] [nM] | IC50 (read-out: relative IC50) [nM] |
| --- | --- | --- |
| Cc1ccc(OCc2cccc(N)c2)c(F)c1[C@@H]1O[C@@H]2C[C@H]3[C@@H]4CCC5=CC(=O)C=C[C@]5(C)[C@H]4[C@@H](O)C[C@]3(C)[C@]2(C(=O)CO)O1 [Example 1, (6aR,6bS,7S,8aS,8bS,10R,11aR,12aS,12bS)-10-(3-((3-Aminobenzyl)oxy)-2-fluoro-6-methylphenyl)-7-hydroxy-8b-(2-hydroxyacetyl)-6a,8a-dimethyl-1,2,6a,6b,7,8,8a,8b,11a,12,12a,12b-dodecahydro-4H-naphtho[2′,1′:4,5]indeno[1,2-d][1,3]dioxol-4-one] | 2.12 |  |
| COc1ccc(OCc2cccc(N)c2)c(F)c1[C@H]1O[C@@H]2C[C@H]3[C@@H]4CCC5=CC(=O)C=C[C@]5(C)[C@H]4[C@@H](O)C[C@]3(C)[C@]2(C(=O)CO)O1 [Example 5, (6aR,6bS,7S,8aS,8bS,10S,11aR,12aS,12bS)-10-(3-((3-Aminobenzyl)oxy)-2-fluoro-6-methoxyphenyl)-7-hydroxy-8b-(2-hydroxyacetyl)-6a,8a-dimethyl-1,2,6a,6b,7,8,8a,8b,11a,12,12a,12b-dodecahydro-4H-naphtho[2′,1′:4,5]indeno[1,2-d][1,3]dioxol-4-one] | 1.4 |  |
| Cc1ccc(OCc2ccccc2N)cc1[C@@H]1O[C@@H]2C[C@H]3[C@@H]4CCC5=CC(=O)C=C[C@]5(C)[C@H]4[C@@H](O)C[C@]3(C)[C@]2(C(=O)CO)O1 [Example 80, (6aR,6bS,7S,8aS,8bS,10R,11aR,12aS,12bS)-10-(5-((2-aminobenzyl)oxy)-2-methylphenyl)-7-hydroxy-8b-(2-hydroxyacetyl)-6a,8a-dimethyl-1,2,6a,6b,7,8,8a,8b,11a,12,12a,12b-dodecahydro-4H-naphtho[2′,1′:4,5]indeno[1,2-d][1,3]dioxol-4-one] |  | > 200 |
| Cc1ccc(OCc2cccc(N)c2)c(F)c1[C@H]1O[C@@H]2C[C@H]3[C@@H]4CCC5=CC(=O)C=C[C@]5(C)[C@H]4[C@@H](O)C[C@]3(C)[C@]2(C(=O)CO)O1 [Example 2, (6aR,6bS,7S,8aS,8bS,10S,11aR,12aS,12bS)-10-(3-((3-Aminobenzyl)oxy)-2-fluoro-6-methylphenyl)-7-hydroxy-8b-(2-hydroxyacetyl)-6a,8a-dimethyl-1,2,6a,6b,7,8,8a,8b,11a,12,12a,12b-dodecahydro-4H-naphtho[2′,1′:4,5]indeno[1,2-d][1,3]dioxol-4-one] | 1.44 |  |
| C[C@]12C=CC(=O)C=C1CC[C@@H]1[C@@H]2[C@@H](O)C[C@@]2(C)[C@H]1C[C@H]1O[C@H](c3c(F)cccc3OCc3cccc(N)c3)O[C@]12C(=O)CO [Example 45, (6aR,6bS,7S,8aS,8bS,10S,11aR,12aS,12bS)-10-(2-((3-aminobenzyl)oxy)-6-fluorophenyl)-7-hydroxy-8b-(2-hydroxyacetyl)-6a,8a-dimethyl-1,2,6a,6b,7,8,8a,8b,11a,12,12a,12b-dodecahydro-4H-naphtho[2′,1′:4,5]indeno[1,2-d][1,3]dioxol-4-one] |  | > 200 |
| COc1ccc(OCc2cccc(N)c2)c(F)c1[C@@H]1O[C@@H]2C[C@H]3[C@@H]4CCC5=CC(=O)C=C[C@]5(C)[C@H]4[C@@H](O)C[C@]3(C)[C@]2(C(=O)CO)O1 [Example 4, (6aR,6bS,7S,8aS,8bS,10R,11aR,12aS,12bS)-10-(3-((3-Aminobenzyl)oxy)-2-fluoro-6-methoxyphenyl)-7-hydroxy-8b-(2-hydroxyacetyl)-6a,8a-dimethyl-1,2,6a,6b,7,8,8a,8b,11a,12,12a,12b-dodecahydro-4H-naphtho[2′,1′:4,5]indeno[1,2-d][1,3]dioxol-4-one] | 2.47 |  |
| C[C@]12C=CC(=O)C=C1CC[C@@H]1[C@@H]2[C@@H](O)C[C@@]2(C)[C@H]1C[C@H]1O[C@H](c3c(Cl)cccc3OCc3cccc(N)c3)O[C@]12C(=O)CO [Example 52, (6aR,6bS,7S,8aS,8bS,10S,11aR,12aS,12bS)-10-(2-((3-aminobenzyl)oxy)-6-chlorophenyl)-7-hydroxy-8b-(2-hydroxyacetyl)-6a,8a-dimethyl-1,2,6a,6b,7,8,8a,8b,11a,12,12a,12b-dodecahydro-4H-naphtho[2′,1′:4,5]indeno[1,2-d][1,3]dioxol-4-one] |  | > 200 |
